Measured values as given in US4520031A, “Method for reducing toxic effects of methyl-glyoxal bis-guanylhydrazone” (priority 1982, dated 1985).
Where two headings read alike, the source gives them in different places.

Columns and labels:
[1] = parameters: muscle pain and weakness in patient with acute leukemia: dose or concentration left out as unconfirmed
Method: During the course of the clinical experiments, MGBG was administered to patients in approximately weekly doses ranging from 250 to 1000 mg per square meter.
Pre-treatment minimum evaluation included chest roentgenogram, liver and renal function tests, complete blood count with differential and platelet count and serum glucose. Pre-treatment performance status was recorded for each patient in accordance with SWOG criteria.
This intravenous infusion is administered to the patient over a period of time not less than 30 minutes. Accordingly, an approximation of the patient's surface area in square meters is calculated using a height and weight to surface area nomogram (listed in Documenta Geigy, Scientific Tables (1970) p. 537) and this factor is applied in determining the appropriate amount of MGBG salt to be added to the infusion solution. […] In the absence of toxicity, subsequent doses of MGBG are increased by 100 mg/m^2 over the previous week's dose. If patients experience moderate or severe reversible toxicity, the dose is reduced by 100 mg/m^2 relative to the previous week's dose. No change in dosage strength is made for mild toxicity.

Colon = test: Response to weekly MGBG, colon; assay type: in vivo, human; details: 14 evaluable patients
Lung (non-small cell) = test: Response to weekly MGBG, lung; assay type: in vivo, human; details: 6 evaluable patients
Esophagus = test: Response to weekly MGBG, esophagus; assay type: in vivo, human
[2] = system: Bladder (transitional cell); test: Response to weekly MGBG, bladder; assay type: in vivo, human
[3] = system: Adenocarcinoma (unknown primary); test: Response to weekly MGBG, adenocarcinoma; assay type: in vivo, human
Prostate = test: Response to weekly MGBG, prostate; assay type: in vivo, human; details: 6 evaluable patients
Head & Neck = test: Response to weekly MGBG, head & neck; assay type: in vivo, human; details: 2 evaluable patients
spermidine biosynthesis = details: in vitro; concentrations as low as; cited from earlier work
[4] = over three weeks, 30240 min; cited from earlier work
polyamine synthesis = details: in vitro; cited from earlier work
protein synthesis = details: in vitro; cited from earlier work
[5] = cited from earlier work

CC(C=NNC(=N)N)=NNC(=N)N [MGBG, 1,1'-[(methylethanediylidene)dinitrilo] diguanidine]
Number with Toxicity ([1]; 1 course MGBG, 13 patients): 1 patients | Number with Toxicity (Approx %) ([1]; 1 course MGBG, 13 patients): 8% | Number with Toxicity ([1]; 2 courses MGBG, 25 patients): 7 patients | Number with Toxicity (Approx %) ([1]; 2 courses MGBG, 25 patients): 28% | Number with Toxicity ([1]; 3 courses MGBG, 15 patients): 6 patients | Number with Toxicity (Approx %) ([1]; 3 courses MGBG, 15 patients): 40% | Anemia, Hemoglobin 5.0-6.9 g/100 ml ([1]; 90 patients): 2 patients | Anemia, Hemoglobin 7.0-8.9 g/100 ml ([1]; 90 patients): 1 patients | Diarrhea: 3-4 stools/day, no dehydration ([1]; 90 patients): 1 patients | Diarrhea: 4 liquid stools/day, IV hydration required ([1]; 90 patients): 1 patients | Granulocytes: <1000/mm^3 ([1]; 90 patients): 3 patients | vomiting ≤6 times/day ([1]; 90 patients): 5 patients | vomiting ≥7 times/day ([1]; 90 patients): 3 patients | patients with no toxicity (number) ([1]; 90 patients, 500 mg/m^2 or more each week): 67 patients | Mucositis: drug-related death ([1]; 90 patients, patient with hepatoma, one dose at 600 mg/m^2): 1 patients | muscle pain and weakness in patient with acute leukemia ([1]; acute leukemia, three weekly doses): One | toxicity at 250 mg/m^2 weekly ([1]; first twelve patients, 250 mg/m^2 weekly): no toxicity | Anorexia (Approx. %) ([1]; human, in vivo): 8% | Anorexia (No. of Patients) ([1]; human, in vivo): 7 patients | Balanitis (Approx. %) ([1]; human, in vivo): 4% | Balanitis (No. of Patients) ([1]; human, in vivo): 4 patients | Diarrhea (Approx. %) ([1]; human, in vivo): 3% | Diarrhea (No. of Patients) ([1]; human, in vivo): 3 patients | Granulocytes: <1500 mm^3 ([1]; human, in vivo): 2 patients | Hematologic (Approx. %) ([1]; human, in vivo): 11% | Hematologic (No. of Patients) ([1]; human, in vivo): 10 patients | Mucositis: erythema ([1]; human, in vivo): 3 patients | Mucositis: ulcers, able to eat ([1]; human, in vivo): 7 patients | Mucositis: ulcers, unable to eat ([1]; human, in vivo): 6 patients | Myelosuppression (number) ([1]; human, in vivo): 7 patients | Myelosuppression (percent) ([1]; human, in vivo): 8% | Myopathy (Approx. %) ([1]; human, in vivo): 3% | Myopathy (No. of Patients) ([1]; human, in vivo): 3 patients | Nausea and vomiting (Approx. %) ([1]; human, in vivo): 16% | Nausea and vomiting (No. of Patients) ([1]; human, in vivo): 14 patients | Platelets: 25 × 10^3 -50 × 10^3 /mm^3 ([1]; human, in vivo): 2 patients | Skin rash (Approx. %) ([1]; human, in vivo): 2% | Skin rash (No. of Patients) ([1]; human, in vivo): 2 patients | Urethritis (Approx. %) ([1]; human, in vivo): 3% | Urethritis (No. of Patients) ([1]; human, in vivo): 3 patients | Vasculitis (Approx. %) ([1]; human, in vivo): 2% | Vasculitis (No. of Patients) ([1]; human, in vivo): 2 patients | anemia (number) ([1]; human, in vivo): 3 patients | anemia (percent) ([1]; human, in vivo): 3% | bloody diarrhea ([1]; human, in vivo): 1 patients | hospitalization secondary to vomiting ([1]; human, in vivo): 1 patients | nausea, no vomiting ([1]; human, in vivo): 5 patients | severe muscle pain and weakness of the lower extremities ([1]; human, in vivo): three | cumulative toxicity ([1]; increasing numbers of courses): toxicity appeared to be cumulative | reversibility of muscle pain and weakness ([1]; three patients): reversible with drug withdrawal | creatinine phosphokinase and aldolase ([1]; three patients with muscle pain and weakness): normal | Number with Toxicity ([1]; ≥4 courses MGBG, 56 patients): 28 patients | Number with Toxicity (Approx %) ([1]; ≥4 courses MGBG, 56 patients): 50% | CR + PR (Colon): 3 | No Response (Colon): 11 | PR (Partial response) (Colon): 3 | CR + PR (Lung (non-small cell)): 2 | No Response (Lung (non-small cell)): 4 | PR (Partial response) (Lung (non-small cell)): 2 | CR + PR (Esophagus; 2 evaluable patients): 1 | No Response (Esophagus; 2 evaluable patients): 1 | PR (Partial response) (Esophagus; 2 evaluable patients): 1 | Duration Months (Esophagus; duration of CR + PR): 3 Months | CR (Complete response) ([2]; 3 evaluable patients): 1 | CR + PR ([2]; 3 evaluable patients): 1 | No Response ([2]; 3 evaluable patients): 2 | Duration Months ([2]; duration of CR + PR): 1 Months | CR (Complete response) ([3]; 3 evaluable patients): 1 | CR + PR ([3]; 3 evaluable patients): 1 | IMP (Improvement noted) ([3]; 3 evaluable patients): 1 | PR (Partial response) ([3]; 3 evaluable patients): 1 | Duration Months ([3]; duration of CR + PR): 2 Months | IMP (Improvement noted) (Prostate): 1 | No Response (Prostate): 5 | No Response (Head & Neck): 2 | concentration at which MGBG is a potent inhibitor of spermidine biosynthesis (spermidine biosynthesis): ≥ 0.5 µg/mL | administered intravenous dose excreted in the feces [4]: less than 20% | administered intravenous dose excreted in the urine [4]: 50% | intermediate concentrations acting selectively on all polyamine synthesis (polyamine synthesis): 0.6 to 2.4 µg/mL | concentration with direct toxic effects, including inhibition of protein synthesis (protein synthesis): ≥ 30000 ng/mL | Days to first Toxicity ([5]; patient 1, 230 mg/m^2/day): 16 days | Response ([5]; patient 1, 230 mg/m^2/day): None | Days to first Toxicity ([5]; patient 2, 340 mg/m^2/day): 7 days | Response ([5]; patient 2, 340 mg/m^2/day): None | Days to first Toxicity ([5]; patient 3, 256 mg/m^2/day): 9 days | Response ([5]; patient 3, 256 mg/m^2/day): Partial | Days to first Toxicity ([5]; patient 4, 264 mg/m^2/day): 7 days | Response ([5]; patient 4, 264 mg/m^2/day): Complete | Days to first Toxicity ([5]; patient 5, 252 mg/m^2/day): 10 days | Response ([5]; patient 5, 252 mg/m^2/day): Complete | Days to first Toxicity ([5]; patient 6, 156 mg/m^2/day): 10 days | Response ([5]; patient 6, 156 mg/m^2/day): Complete | Days to first Toxicity ([5]; patient 7, 194 mg/m^2/day): 6 days | Response ([5]; patient 7, 194 mg/m^2/day): Complete | Days to first Toxicity ([5]; patient 8, 194 mg/m^2/day): 7 days | Response ([5]; patient 8, 194 mg/m^2/day): Complete | Days to first Toxicity ([5]; patient 9, 150 mg/m^2/day): 23 days | Response ([5]; patient 9, 150 mg/m^2/day): Partial | Toxic Manifestation ([5]; patient 9, 150 mg/m^2/day): None | Days to first Toxicity ([5]; patient 10, 150 mg/m^2/day): 24 days | Response ([5]; patient 10, 150 mg/m^2/day): Complete | Toxic Manifestation ([5]; patient 10, 150 mg/m^2/day): None | Days to first Toxicity ([5]; patient 11, 150 mg/m^2/day): 15 days | Response ([5]; patient 11, 150 mg/m^2/day): Complete | Toxic Manifestation ([5]; patient 11, 150 mg/m^2/day): None | Days to first Toxicity ([5]; patient 12, 150 mg/m^2/day): 13 days | Response ([5]; patient 12, 150 mg/m^2/day): Complete | Days to first Toxicity ([5]; patient 13, 150 mg/m^2/day): 13 days | Response ([5]; patient 13, 150 mg/m^2/day): Complete | Toxic Manifestation ([5]; patient 13, 150 mg/m^2/day): None
